The text below walks through data of patent publication US12180226B2, “Spirotricycle RIPK1 inhibitors and methods of uses thereof” (Merck Sharp & Dohme LLC, priority 2021, dated 2024).

Structures can show the parent of a compound that is named as a salt.

The target in this experiment is RIPK1 (recombinant GST-RIPK1 kinase domain, residues 1-327) (Homo sapiens (Human), UniProt Q13546). Put plainly: RIPK1-ADP-Glo Enzymatic Assay. The format is biochemical. The note with it: ADP-Glo; 25 nM GST-RIPK1, 300 μM ATP; assay lower limit ~25 nM; read-out: RIPK1 V0 Ec50. The essentials:
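GST-tagged kinase domain (residues 1-327, Sf21-expressed), 25 nM, pre-incubated 30 min with compound at ambient temperature, then reacted 150 min with 300 μM ATP and 3 μM dephosphorylated MBP in HEPES pH 7.3 buffer. ADP measured by ADP-Glo luminescence; EC50 from ten-point titration (top 100000 nM), four-parameter fit.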
Background: ADP-Glo first removes unused ATP, then detects ADP through luciferase.

RIPK1 (recombinant GST-RIPK1 kinase domain, residues 1-327), sequence (Q13546 1-327): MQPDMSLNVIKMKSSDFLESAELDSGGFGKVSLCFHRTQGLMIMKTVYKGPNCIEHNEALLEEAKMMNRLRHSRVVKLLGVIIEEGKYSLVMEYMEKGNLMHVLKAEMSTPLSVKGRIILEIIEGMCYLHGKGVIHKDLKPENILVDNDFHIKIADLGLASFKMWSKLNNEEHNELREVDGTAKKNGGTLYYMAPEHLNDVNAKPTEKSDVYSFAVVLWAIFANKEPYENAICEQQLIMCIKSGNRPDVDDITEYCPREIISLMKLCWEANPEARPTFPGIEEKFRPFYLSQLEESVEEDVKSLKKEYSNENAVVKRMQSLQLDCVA

As to `O=C(c1ccccc1)N1CCC2(CC1)O[C@@H]1[C@@H](O)C[C@@H](c3ccccc3)N1C2=O` [Example 6.136], the EC50 – broadly, the concentration needed to bring the measured effect to its halfway point – was found to be 136 nM.
In the case of `O=C(c1ccccc1)N1CCC2(CC1)O[C@@H]1CC[C@@H](c3cnsc3)N1C2=O` [Example 17.7, (5′S,7a′R)-1-benzoyl-5′-(isothiazol-4-yl)tetrahydro-3′H-spiro[piperidine-4,2′-pyrrolo[2,1-b]oxazol]-3′-one] it was 558 nM; in that of `O=C1N2[C@@H](CC[C@H]2c2ccccc2)OC12CCN(c1ccc(-c3ncco3)c3ccnn13)CC2` [Example 21.22, (5′S,7a′R)-1-[4-(1,3-oxazol-2-yl)pyrazolo[1,5-a]pyridin-7-yl]-5′-phenyltetrahydro-3′H-spiro[piperidine-4,2′-pyrrolo[2,1-b][1,3]oxazol]-3′-one], less than 25 nM; in that of `CCc1ccnc(C(=O)N2CCC3(CC2)O[C@@H]2CC[C@@H](c4cc(F)cc(F)c4)N2C3=O)c1` [Example 6.79, (5′S,7a′R)-5′-(3,5-difluorophenyl)-1-(4-ethylpyridine-2-carbonyl)tetrahydro-3′H-spiro[piperidine-4,2′-pyrrolo[2,1-b][1,3]oxazol]-3′-one], 38.3 nM.
For `O=C1N2[C@@H](CC[C@H]2c2cc(F)cc(F)c2)OC12CCN(c1nccn3cccc13)CC2` [Example 13.10, (5′S,7a′R)-5′-(3,5-difluorophenyl)-1-(pyrrolo[1,2-a]pyrazin-1-yl)tetrahydro-3′H-spiro[piperidine-4,2′-pyrrolo[2,1-b]oxazol]-3′-one], the EC50 turned out to be 36.8 nM.
On to `O=C(c1cc2n(n1)CCCC2)N1CCC2(CC1)O[C@@H]1CC[C@@H](c3cc(F)cc(F)c3)N1C2=O` [Example 5.75, (5′S,7a′R)-5′-(3,5-difluoro-phenyl)-1-(4,5,6,7-tetra-hydropyrazolo[1,5-a]-pyridine-2-carbonyl)tetra-hydro-3′H-spiro[piperi-dine-4,2′-pyrrolo[2,1-b]oxazol]-3′-one], for which the EC50 is 524 nM.
As for `N#Cc1ccc(C(=O)N2CCC3(CC2)O[C@@H]2CC[C@@H](c4cc(F)cc(F)c4)N2C3=O)cc1` [Example 5.21, 4-((5′S,7a′R)-5′-(3,5-difluorophenyl)-3′-oxo-tetrahydro-3′H-spiro [piperidine-4,2′-pyrrolo-[2,1-b]oxazole]-1-carbon-yl)benzonitrile], the EC50 is 342 nM.
`COc1cncc(C(=O)N2CCC3(CC2)O[C@@H]2CC[C@@H](c4cc(F)cc(F)c4)N2C3=O)n1` [Example 6.41, (5′S,7a′R)-5′-(3,5-difluorophenyl)-1-(6-methoxypyrazine-2-carbonyl)tetrahydro-3′H-spiro[piperidine-4,2′-pyrrolo[2,1-b] [1,3]-oxazol]-3′-one]: the EC50 was determined as 131 nM.
For `O=C1N2[C@@H](CC[C@H]2c2ccccc2)OC12CCN(c1nc3cnccc3o1)CC2` [Example 4.159, (5′S,7a′R)-1-([1,3]oxazolo[4,5-c]pyridin-2-yl)-5′-phenyltetrahydro-3′H-spiro[piperidine-4,2′-pyrrolo[2,1-b] [1,3]oxazol]-3′-one], the EC50 worked out at 62.6 nM.
Take `O=C1N2[C@@H](CC[C@H]2c2cc(F)cc(F)c2)OC12CCN(c1ccc(OCC(F)F)c3ccnn13)CC2` [Example 19.4, (5′S,7a′R)-1-(4-(2,2-difluoroethoxy)pyrazolo [1,5-a]pyridin-7-yl)-5′-(3,5-difluorophenyl)tetrahydro-3′H-spiro[piperidine-4,2′-pyrrolo[2,1-b]oxazol]-3′-one, TFA salt]: the EC50 amounted to 32 nM.
The same measure for `O=C1N2[C@@H](CC[C@H]2c2cc(F)cc(F)c2)OC12CCN(c1nnc3cccnn13)CC2` [Example 13.9, (5′S,7a′R)-1-([1,2,4]triazolo[4,3-b]pyridazin-3-yl)-5′-(3,5-difluorophenyl)tetrahydro-3′H-spiro[piperidine-4,2′-pyrrolo[2,1-b]oxazol]-3′-one, TFA salt]: 339 nM.
